From EP4755890A1, “OXO-TRICYCLIC DERIVATIVE AND PHARMACEUTICAL USE THEREOF” (Haisco Pharmaceutical Group Co., Ltd., priority 2023, dated 2025) come the findings set out here.

Where two headings read alike, the source gives them in different places. Where only a bound is given, the exact number is not on record here.

For one data set, the target named is T1, CYP3A4 (Homo sapiens, UniProt P08684).
T1 construct: co-incubated with human liver microsomes; from tissue; host or cells: human liver microsomes
T1 sequence (P08684 whole entry): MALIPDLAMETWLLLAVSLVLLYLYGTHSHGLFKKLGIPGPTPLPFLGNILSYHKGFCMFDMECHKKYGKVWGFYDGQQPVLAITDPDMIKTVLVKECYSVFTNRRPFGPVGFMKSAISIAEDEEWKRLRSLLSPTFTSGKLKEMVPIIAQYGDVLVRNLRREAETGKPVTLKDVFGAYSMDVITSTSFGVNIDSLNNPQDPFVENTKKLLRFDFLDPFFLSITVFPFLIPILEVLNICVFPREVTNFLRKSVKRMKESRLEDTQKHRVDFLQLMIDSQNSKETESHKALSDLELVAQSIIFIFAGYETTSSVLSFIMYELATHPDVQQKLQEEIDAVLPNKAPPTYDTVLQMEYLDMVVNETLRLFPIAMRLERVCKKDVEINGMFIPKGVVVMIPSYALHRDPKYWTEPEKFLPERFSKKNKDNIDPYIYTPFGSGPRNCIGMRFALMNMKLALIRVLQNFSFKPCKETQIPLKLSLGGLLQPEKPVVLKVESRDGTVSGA
As to the kind of experiment: CYP450 enzyme activity inhibition assay, CYP3A4. In kind it is in vitro ADME. The protocol:
(§1) The purpose of this study was to evaluate the effects of the test compounds on the activities of five isoenzymes (CYP1A2, CYP2C9, CYP2C19, CYP2D6, and CYP3A4) of human liver microsomal cytochrome P450 (CYP) using an in vitro testing system. The specific probe substrates for each CYP450 isoenzyme were co-incubated with human liver microsomes and the test compounds at different concentrations, and reduced nicotinamide adenine dinucleotide phosphate (NADPH) was added to initiate the reaction. After the reactions were completed, the samples were treated, and liquid chromatography-tandem mass spectrometry (LC-MS/MS) was used to quantitatively detect metabolites produced by the specific substrates. The changes in CYP enzyme activities were determined, and the IC50 values were calculated to evaluate the inhibitory potential of the test compounds against each CYP enzyme subtype.

The target of a further data set is T2, CYP2C19 (Homo sapiens, UniProt P33261).
T2 construct: co-incubated with human liver microsomes; from tissue; host or cells: human liver microsomes
T2 sequence (P33261 whole entry): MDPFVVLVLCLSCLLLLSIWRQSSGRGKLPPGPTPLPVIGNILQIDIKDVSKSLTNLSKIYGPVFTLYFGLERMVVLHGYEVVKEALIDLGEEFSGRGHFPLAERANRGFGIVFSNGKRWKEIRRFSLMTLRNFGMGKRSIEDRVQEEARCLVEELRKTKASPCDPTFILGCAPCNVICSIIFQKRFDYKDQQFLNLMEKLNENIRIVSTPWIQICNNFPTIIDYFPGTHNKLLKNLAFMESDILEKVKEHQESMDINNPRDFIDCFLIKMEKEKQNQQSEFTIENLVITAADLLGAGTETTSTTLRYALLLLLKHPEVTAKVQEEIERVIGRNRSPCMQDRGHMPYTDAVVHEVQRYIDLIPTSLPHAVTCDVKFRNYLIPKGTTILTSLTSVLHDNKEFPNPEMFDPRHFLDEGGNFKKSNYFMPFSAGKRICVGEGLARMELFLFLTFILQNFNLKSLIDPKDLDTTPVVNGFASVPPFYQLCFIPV
As to the kind of experiment: CYP450 enzyme activity inhibition assay, CYP2C19. It is filed as in vitro ADME. On the procedure:
as §1

Data set [1] in a line: Mouse pharmacokinetic assay. In kind it is in vivo, Balb/c mice. The following applies: for pharmacokinetic properties: mouse. On the procedure:
4.1. Experimental animals: Male Balb/c mice, about 22 g, 6-8 weeks old, 6 mice/compound. The animals were purchased from CHENGDU DOSSY EXPERIMENTAL ANIMALS CO., LTD.
4.2. Experimental design: On the day of the experiment, the Balb/c mice were randomly grouped according to their body weights. The animals were fasted with water available for 12-14 h one day before the administration, and were fed 4 h after the administration. Table 4. Administration information
Vehicle for intravenous administration: 5% DMA + 5% Solutol + 90% Saline; and vehicle for intragastric administration: 5% DMSO + 95% (20% SBE-β-CD in Saline)
Before and after the administration, 0.03 ml of blood was taken from the orbit under isoflurane anesthesia and placed in an EDTAK2 centrifuge tube. The tube was centrifuged at 5000 rpm at 4°C for 10 min, and plasma was collected. The blood collection time points for the intravenous administration group and intragastric administration group were as follows: 0, 2 min, 5 min, 15 min, 30 min, 1 h, 2 h, 4 h, and 7 h. Before analysis and detection, all samples were stored at - 80°C. Table 5. Pharmacokinetic parameters of test compounds in mouse plasma

In data set [2] the target is T3, WRN protein (AA N517-P1238, ICE, Cat. S2212T-H56HZ) (Homo sapiens, UniProt Q14191).
T3 construct: WRN protein (AA N517-P1238, ICE, Cat. S2212T-H56HZ); purchased ICE S2212T-H56HZ
T3 sequence (Q14191 517-1238, stated change not applied): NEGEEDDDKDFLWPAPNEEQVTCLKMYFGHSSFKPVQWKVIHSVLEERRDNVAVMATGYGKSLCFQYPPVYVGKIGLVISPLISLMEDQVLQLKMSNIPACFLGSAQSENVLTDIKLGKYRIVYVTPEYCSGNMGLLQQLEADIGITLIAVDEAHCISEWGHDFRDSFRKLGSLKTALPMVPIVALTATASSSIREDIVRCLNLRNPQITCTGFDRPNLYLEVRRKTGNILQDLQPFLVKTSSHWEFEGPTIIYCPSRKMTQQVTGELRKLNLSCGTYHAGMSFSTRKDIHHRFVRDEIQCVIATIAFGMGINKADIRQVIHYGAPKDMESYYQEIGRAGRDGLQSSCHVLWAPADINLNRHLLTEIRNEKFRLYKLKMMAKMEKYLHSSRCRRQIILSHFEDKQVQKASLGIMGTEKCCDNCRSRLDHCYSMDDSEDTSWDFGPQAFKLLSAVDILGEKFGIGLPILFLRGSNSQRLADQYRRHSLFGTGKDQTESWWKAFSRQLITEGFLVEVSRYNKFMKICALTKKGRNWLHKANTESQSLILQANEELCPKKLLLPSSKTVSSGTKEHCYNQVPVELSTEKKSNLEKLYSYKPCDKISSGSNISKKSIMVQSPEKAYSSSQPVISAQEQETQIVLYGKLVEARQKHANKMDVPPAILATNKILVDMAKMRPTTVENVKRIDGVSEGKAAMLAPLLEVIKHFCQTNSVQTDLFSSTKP
As to the kind of experiment: Assay for WRN helicase activity (FORKF dsDNA unwinding, fluorescence). In kind it is biochemical. The settings on record: inhibition of WRN helicase activity; 10 nM WRN, 10 nM FORKF, 2 mM ATP. The protocol:
The assay buffer working solution prepared with RNAase-free water was as follows: 25 mM Tris (pH 7.5), 2 mM MgCl2, 50 mM NaCl, 0.02% BSA, 0.01% Tween, and 1 mM DTT. WRN protein (AA N517-P1238, ICE, Cat. S2212T-H56HZ) was obtained through protein expression and purification in vitro. Two single-stranded DNAs were synthesized: […]-BHQ2 (quencher), and (fluorophore) TAMRA-[…]. dsDNA (FORKF) was obtained via annealing of the two single-stranded DNAs. When the WRN protein bound to FORKF, the dsDNA was unwound, exposing the fluorophore, thereby generating fluorescence. 2 µL of compounds at different concentrations and 4 µL of WRN protein were added to a 384-well black plate (Greiner, Cat#784075). The plate was pre-incubated at room temperature for 20 minutes. 2 µL each of ATP and the FORKF substrate were added. The working concentrations of the WRN protein, FORKF, and ATP were 10 nM, 10 nM, and 2 mM, respectively. The plate was incubated at room temperature for 20 minutes. After the incubation was completed, the fluorescence value was read at Ex 540 nm/Em 590 nm using a BMG microplate reader (PHERAstar FSX).
The inhibition rate was calculated according to Formula 2, where RLUsample is the readout of the compound well, RLUmax is the readout of the DMSO control well, and RLUmin is the readout of the control well without the WRN protein. Curve fitting was performed via a four-parameter logistic model using GraphPad Prism software, and the IC50 value (the concentration of the compound when the inhibition rate was 50%) was calculated. Inhibition% = (1−(RLUsample−RLUmin)/(RLUmax−RLUmin)) × 100% [formula] Table 2. Results of inhibitory activity of test compounds against WRN helicase activity

Another data set relates to SW48 cells. Nature of the data set: SW48 cell proliferation inhibition assay (CellTiter-Glo). The following applies: Homo sapiens, 96 h, 4 days, read-out: Inhibitory activity against SW48 cell proliferation IC50. It is filed as cell-based. On the procedure: The culture conditions for SW48 cells were as follows: Leibovitz L15 + 10% FBS + 1% penicillin-streptomycin, and the cells were cultured in an incubator without CO2 at 37°C. On the first day, the SW48 cells in the exponential growth phase were collected and plated in 96-well cell culture plates at a density of 1000 cells/well (180 µL/well). The plates were cultured overnight in an incubator without CO2 at 37°C. T0 wells were plated simultaneously during the plating process. The next day, 20 µL of compounds at different concentrations were added to each well (nine compound concentration gradients, one DMSO well, and one blank well; each compound concentration was plated in triplicate), and the final concentration of DMSO in each well was 0.1%. The plates were cultured in an incubator without CO2 at 37°C for 4 days. On the same day of compound addition, the T0 plate was detected using the CellTiter-Glo Kit, and the detected value was recorded as RLU0. After the culture was completed, 100 µL of detection solution (Cell Viability Assay, Promega) was added to each well. The plates were incubated at room temperature for 10 minutes with slow shaking. The chemiluminescence reading was read using a BMG microplate reader (PHERAstar FSX). The results were processed according to Formula (5) to calculate the proliferation inhibition rate of compounds at each concentration. Curve fitting was performed via a four-parameter logistic model using GraphPad Prism software, and the GI50 value (the concentration of the compound when the proliferation inhibition rate was 50%) was calculated. In the formula, RLUcompound is the readout of the drug-treated group, RLUcontrol is the average value of the compound vehicle control group, and RLUBlank is the average value of the blank control group. [formula] Table 3. Results of inhibitory activity of test compounds against cell proliferation
For orientation: ATP-based viability assays read luminescence as a measure of living cells.

The target of a further data set is T4, CYP2D6 (Homo sapiens, UniProt P10635).
T4 construct: co-incubated with human liver microsomes; from tissue; host or cells: human liver microsomes
T4 sequence (P10635 whole entry): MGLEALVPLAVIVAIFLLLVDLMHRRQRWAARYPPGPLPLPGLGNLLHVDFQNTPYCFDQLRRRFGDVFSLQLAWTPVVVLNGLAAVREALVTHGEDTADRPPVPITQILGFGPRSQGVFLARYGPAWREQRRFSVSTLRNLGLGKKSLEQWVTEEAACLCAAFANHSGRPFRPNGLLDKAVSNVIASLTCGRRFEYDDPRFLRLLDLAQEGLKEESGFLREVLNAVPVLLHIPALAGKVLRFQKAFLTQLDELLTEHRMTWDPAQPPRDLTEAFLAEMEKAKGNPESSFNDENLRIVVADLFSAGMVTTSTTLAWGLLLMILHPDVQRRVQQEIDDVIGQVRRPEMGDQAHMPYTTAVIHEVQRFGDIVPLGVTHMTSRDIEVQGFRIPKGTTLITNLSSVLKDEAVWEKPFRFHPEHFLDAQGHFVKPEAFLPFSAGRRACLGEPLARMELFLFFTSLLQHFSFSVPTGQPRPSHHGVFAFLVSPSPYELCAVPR
Nature of the data set: CYP450 enzyme activity inhibition assay, CYP2D6. In kind it is in vitro ADME. The protocol: as §1

The target of another data set is T5, CYP2C9 (Homo sapiens, UniProt P11712).
T5 construct: co-incubated with human liver microsomes; from tissue; host or cells: human liver microsomes
T5 sequence (P11712 whole entry): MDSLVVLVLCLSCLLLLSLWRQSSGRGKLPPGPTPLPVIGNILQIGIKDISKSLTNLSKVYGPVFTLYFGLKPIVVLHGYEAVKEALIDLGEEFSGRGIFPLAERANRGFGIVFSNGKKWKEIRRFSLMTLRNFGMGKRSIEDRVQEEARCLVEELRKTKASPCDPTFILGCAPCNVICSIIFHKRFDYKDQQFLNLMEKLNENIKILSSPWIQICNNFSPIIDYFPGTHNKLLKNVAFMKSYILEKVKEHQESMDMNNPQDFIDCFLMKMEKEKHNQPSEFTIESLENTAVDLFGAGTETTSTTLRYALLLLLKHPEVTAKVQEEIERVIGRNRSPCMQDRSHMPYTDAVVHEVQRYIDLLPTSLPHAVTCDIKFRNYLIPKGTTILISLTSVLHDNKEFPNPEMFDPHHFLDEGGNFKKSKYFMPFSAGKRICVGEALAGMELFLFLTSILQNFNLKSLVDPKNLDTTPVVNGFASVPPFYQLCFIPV
As to the kind of experiment: CYP450 enzyme activity inhibition assay, CYP2C9. It is filed as in vitro ADME. On the procedure: as §1

For the compound `Cc1ncnc(C(=O)N2CCN(c3c4n(c5nc(C6=CCOCC6)nn5c3=O)C(C(=O)Nc3ccc(C(F)(F)F)cc3Cl)CCC4)C[C@H]2C)c1O` (single isomer, unassigned) [Compound 8-B], the IC50 against CYP3A4 was over 30 µM; against CYP2C19 it was over 30 µM; in data set [2], under 0.02 µM; in the data set on SW48 cells it was under 0.1 µM; at CYP2D6, over 30 µM; against CYP2C9, over 30 µM. Besides, the pharmacokinetic properties entry in data set [1] (result in words) is listed as “favorable”.
Take `Cc1ncnc(C(=O)N2CCN(c3c4n(c5nc(C6=CCOCC6)nn5c3=O)[C@@H](C(=O)Nc3ccc(C(F)(F)F)cc3Cl)CCC4)CC2)c1O` [Compound 1-B]: the IC50 against CYP3A4 is over 30 µM; on CYP2C19 it was over 30 µM; in data set [2], under 0.02 µM; with SW48 cells, under 0.1 µM; against CYP2D6, over 30 µM; on CYP2C9, over 30 µM. Also, the pharmacokinetic properties entry in data set [1] (result in words) is given as “favorable”.
As for `Cc1ncnc(C(=O)N2[C@@H](C)CN(c3c4n(c5nc(C6=CCOCC6)nn5c3=O)[C@@H](C(=O)Nc3ccc(C(F)(F)F)cc3Cl)CCC4)C[C@@H]2C)c1O` [Compound 20-A], the IC50 on CYP3A4 is over 30 µM; at CYP2C19, over 30 µM; in data set [2], under 0.02 µM; in the data set on SW48 cells it was under 0.1 µM; against CYP2D6, over 30 µM; against CYP2C9, over 30 µM. The area under the curve AUC(0-t) in data set [1] (po, mouse plasma, i.g. (10 mg/kg)) came out at 38500 ng·h/mL. The bioavailability in data set [1] (po, mouse plasma, i.g. (10 mg/kg), read-out: F (%)) was 93.4%; in data set [1] (result in words, in mice), “good”. In addition, the exposure level entry in data set [1] (result in words, in mice) is on record as “high”. For the same compound, the pharmacokinetic properties result in data set [1] (result in words) is listed as “favorable”.

For orientation: AUC(0-t) means the area under the concentration-time curve up to a stated or last time point.
